Publication PMC10917340, “Coxsackievirus infection induces direct pancreatic β cell killing but poor antiviral CD8^+ T cell responses” (Science Advances, 2024)
Where two headings read alike, the source gives them in different places.

Columns and labels:
HLA-A2 = target: T1, HLA-A2 (Homo sapiens, UniProt P04439, D140Y/D185E/D98H/E176V/E277Q/G131W/G231S/I119V/I121R/I166T/I218V/N151K/N90K/P208A/P217A/Q86G/Q94H/R138H/R169H); assay: In vitro HLA-I binding assay (bead-captured folded monomers)
T1 construct: purchased ImmunAware

circulating CD8+ T cells [1] = assay: Combinatorial HLA-A2 multimer (MMr) assay, screening round; type: cell-based, human; details: for Screening round % effector/memory median (range): HLA-A2, effector/memory (non CD45RA+CCR7+) fraction among MMr+CD8+ T cells; for Screening round Frequency median: HLA-A2 MMr+CD8+ T cells out of total CD8+ T cells, frozen/thawed PBMCs, CVB-seropositive healthy adults, median of donors
circulating CD8+ T cells [2] = assay: Combinatorial HLA-A2 multimer (MMr) assay, validation round; type: cell-based, human; details: HLA-A2 MMr+CD8+ out of total CD8+ T cells; donors/peptides with <3 MMr+ cells noted as 1.0E-7
[3] = in silico predicted HLA-A2-binding peptides, fig. S2D

Sequence	In vitro binding to HLA-A2 (in words) (HLA-A2)	Screening round % effector/memory median (range) (circulating CD8+ T cells [1])	Screening round Frequency median (circulating CD8+ T cells [1])	In vitro binding to HLA-A2 (in words) (HLA-A2; [3])	further results
GIIYIIYKL [previously reported CVB peptide, IEDB #20311]	did not confirm as binders	–	–	–	–
IMIKSMPAL [CVB1-2-5 60-68, HLA-A2, in silico]	–	26 (0-70) %	2.2 E-5	–	Validation round Frequency median (circulating CD8+ T cells [2]): 1.0 E-7
KLPDALSQM	–	–	–	did not confirm as binders	–
VIASYPWPI	did not confirm as binders	–	–	–	–
VMGDALGSV [ZnT8245-253 peptide homologous to CVB1 150-158]	–	–	–	did not confirm as binders	–
VMIKSLPAL [CVB4-6 60-68, HLA-A2, in silico]	–	20 (20-20) %	5.3 E-6	–	–
